The text below walks through data of patent publication US20250243180A1, “TARGETED PROTEIN DEGRADATION” (Monte Rosa Therapeutics AG, priority 2023, published 2025).

Read-outs that look alike come from different tables or passages of the source.

The target of one assay is NEK7 (Homo sapiens (Human), UniProt Q8TDX7+Q96SW2). In words: NEK7 NanoBiT degradation assay in Cal51 NEK7 NanoBiT cell line. It counts as cell-based. The settings on record: Cal51 NEK7 NanoBiT cells, 24 hours; for Dmax: CAL-51. In a few lines: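 Cal51 cells with CRISPR knock-in HiBiT-tagged endogenous NEK7 plus stable LgBiT, in live-cell Endurazine medium, seeded 16 h before dosing. Compounds at final 1 μM to 0.05 nM for 24 h at 37 °C, then luminescence read. Response normalized to plate controls and fitted with a 4-parameter logistic giving EC50.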
Chain of NEK7 (Q8TDX7 whole entry): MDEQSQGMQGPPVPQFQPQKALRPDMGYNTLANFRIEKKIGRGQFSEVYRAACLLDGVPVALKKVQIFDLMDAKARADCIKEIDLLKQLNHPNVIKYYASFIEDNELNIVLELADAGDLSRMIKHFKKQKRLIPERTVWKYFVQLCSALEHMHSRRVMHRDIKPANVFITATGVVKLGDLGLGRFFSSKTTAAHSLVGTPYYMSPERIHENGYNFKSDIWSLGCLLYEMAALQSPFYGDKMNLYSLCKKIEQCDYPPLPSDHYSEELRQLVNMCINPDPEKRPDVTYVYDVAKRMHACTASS
Chain of NEK7 (Q96SW2 whole entry): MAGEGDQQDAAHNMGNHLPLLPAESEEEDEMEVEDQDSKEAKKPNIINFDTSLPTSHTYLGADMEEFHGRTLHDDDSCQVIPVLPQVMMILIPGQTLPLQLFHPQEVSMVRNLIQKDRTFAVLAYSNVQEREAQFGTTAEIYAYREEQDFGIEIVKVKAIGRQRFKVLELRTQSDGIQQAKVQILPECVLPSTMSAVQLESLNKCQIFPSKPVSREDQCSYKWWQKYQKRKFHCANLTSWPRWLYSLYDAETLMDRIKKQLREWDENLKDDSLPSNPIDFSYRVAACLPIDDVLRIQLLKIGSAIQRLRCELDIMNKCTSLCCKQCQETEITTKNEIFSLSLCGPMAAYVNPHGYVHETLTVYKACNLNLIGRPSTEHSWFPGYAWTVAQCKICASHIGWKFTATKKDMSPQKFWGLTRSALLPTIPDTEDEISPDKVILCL
Chain of NEK7 (Q16531 2-1140 partner): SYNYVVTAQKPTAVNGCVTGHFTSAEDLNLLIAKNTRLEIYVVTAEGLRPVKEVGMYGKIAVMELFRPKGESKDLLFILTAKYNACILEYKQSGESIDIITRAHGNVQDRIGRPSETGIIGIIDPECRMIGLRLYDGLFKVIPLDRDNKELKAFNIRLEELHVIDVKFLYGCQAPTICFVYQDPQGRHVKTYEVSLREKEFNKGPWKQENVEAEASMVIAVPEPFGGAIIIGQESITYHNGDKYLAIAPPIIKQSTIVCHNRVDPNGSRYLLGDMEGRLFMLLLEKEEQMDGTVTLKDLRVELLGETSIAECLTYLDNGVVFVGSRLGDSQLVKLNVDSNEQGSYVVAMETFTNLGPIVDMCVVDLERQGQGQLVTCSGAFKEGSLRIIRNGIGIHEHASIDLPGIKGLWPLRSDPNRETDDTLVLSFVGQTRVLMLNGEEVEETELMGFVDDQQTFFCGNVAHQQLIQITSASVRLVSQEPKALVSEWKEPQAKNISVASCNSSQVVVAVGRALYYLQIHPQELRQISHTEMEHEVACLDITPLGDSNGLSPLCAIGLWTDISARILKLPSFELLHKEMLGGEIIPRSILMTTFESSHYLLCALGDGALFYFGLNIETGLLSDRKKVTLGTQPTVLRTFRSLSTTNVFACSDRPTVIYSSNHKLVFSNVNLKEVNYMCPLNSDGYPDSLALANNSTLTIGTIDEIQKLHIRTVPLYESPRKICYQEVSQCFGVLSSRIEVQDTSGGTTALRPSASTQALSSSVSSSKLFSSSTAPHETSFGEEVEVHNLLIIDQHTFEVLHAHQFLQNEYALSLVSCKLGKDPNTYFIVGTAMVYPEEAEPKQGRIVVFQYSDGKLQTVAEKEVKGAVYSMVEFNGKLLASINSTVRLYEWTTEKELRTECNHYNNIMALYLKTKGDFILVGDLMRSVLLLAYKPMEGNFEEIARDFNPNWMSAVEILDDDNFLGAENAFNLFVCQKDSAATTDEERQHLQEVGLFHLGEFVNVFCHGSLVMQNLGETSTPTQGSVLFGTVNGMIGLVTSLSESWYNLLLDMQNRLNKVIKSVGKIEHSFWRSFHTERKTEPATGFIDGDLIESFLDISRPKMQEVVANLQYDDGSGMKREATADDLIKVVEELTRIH

For another assay, the target named is CRBN-DDB1 (Homo sapiens (Human), UniProt Q96SW2). In words: Compound binding to CRBN by HTRF assay. In short, it runs like this:
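HTRF displacement of Cy5-thalidomide probe (100 nM) from His-tagged CRBN-DDB1 (2.5 nM) with anti-His terbium cryptate, in HEPES/NaCl/TCEP/EDTA/Tween20 buffer; 11-point 1:3 dilution series, 30 min at ambient temperature. Signal (665/620 nm) normalized to lenalidomide and DMSO controls; EC50 fitted, Ki by Cheng-Prusoff from geometric mean EC50.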

[1] abbreviates: NEK7 degradation, read-out: NanoBiT Dmax.
The mark [2] stands for this setting: NEK7 degradation, read-out: NanoBiT DC50.

Chain of CRBN-DDB1 (Q96SW2 whole entry): as the sequence (Q96SW2 whole entry) above
Chain of CRBN-DDB1 (Q16531 whole entry partner): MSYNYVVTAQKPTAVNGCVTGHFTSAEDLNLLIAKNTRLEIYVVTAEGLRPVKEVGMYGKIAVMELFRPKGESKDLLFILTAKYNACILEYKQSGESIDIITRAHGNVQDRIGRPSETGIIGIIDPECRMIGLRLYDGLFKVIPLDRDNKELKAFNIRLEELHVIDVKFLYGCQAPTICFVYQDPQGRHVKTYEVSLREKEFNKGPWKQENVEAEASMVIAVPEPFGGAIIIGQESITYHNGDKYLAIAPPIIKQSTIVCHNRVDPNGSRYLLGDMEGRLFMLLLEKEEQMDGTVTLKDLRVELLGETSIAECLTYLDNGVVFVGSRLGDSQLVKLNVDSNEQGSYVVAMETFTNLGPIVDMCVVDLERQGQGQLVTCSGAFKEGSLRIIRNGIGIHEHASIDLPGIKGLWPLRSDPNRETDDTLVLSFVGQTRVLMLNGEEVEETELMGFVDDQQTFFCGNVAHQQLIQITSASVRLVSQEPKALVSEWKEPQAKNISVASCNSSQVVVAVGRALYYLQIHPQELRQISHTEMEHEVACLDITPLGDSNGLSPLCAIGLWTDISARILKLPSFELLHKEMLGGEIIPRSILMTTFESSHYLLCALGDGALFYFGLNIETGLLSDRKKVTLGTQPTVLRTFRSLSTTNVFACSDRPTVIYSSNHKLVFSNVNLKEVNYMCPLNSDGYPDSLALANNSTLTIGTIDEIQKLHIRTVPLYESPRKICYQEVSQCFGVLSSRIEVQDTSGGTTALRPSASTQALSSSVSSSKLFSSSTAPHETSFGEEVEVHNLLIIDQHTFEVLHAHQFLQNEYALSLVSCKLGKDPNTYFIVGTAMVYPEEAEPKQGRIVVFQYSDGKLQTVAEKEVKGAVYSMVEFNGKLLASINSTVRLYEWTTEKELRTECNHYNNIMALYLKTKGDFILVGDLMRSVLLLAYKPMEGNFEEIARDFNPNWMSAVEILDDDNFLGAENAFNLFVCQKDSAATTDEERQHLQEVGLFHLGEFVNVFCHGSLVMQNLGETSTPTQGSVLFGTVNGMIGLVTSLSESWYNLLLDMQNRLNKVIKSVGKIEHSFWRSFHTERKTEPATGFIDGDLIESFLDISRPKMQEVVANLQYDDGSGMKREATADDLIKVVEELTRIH

Consider `Cc1cnc(C(C)(CO)C(=O)NCc2cc(Cl)c(C3CCC(=O)NC3=O)c(Cl)c2)nc1` (stereo not drawn) [Compound 241, N-(3,5-dichloro-4-(2,6-dioxopiperidin-3-yl)benzyl)-3-hydroxy-2-methyl-2-(5-methylpyrimidin-2-yl)propanamide], for which the Dmax on NEK7 (read-out: NEK7 NanoBiT Dmax) was 86%; at NEK7 (setting [1]), over 75%. The values for the DC50 at NEK7 (read-out: NEK7 NanoBiT DC50) and on NEK7 (setting [2]) were 15 nM and at most 100 nM, respectively. The EC50 was 140 nM on CRBN-DDB1 and 100 to 1000 nM at CRBN-DDB1 (HTRF class, Cereblon binding).
Turning to `CC(C)(C(=O)NCc1cc(Cl)c(C2CCC(=O)NC2=O)c(Cl)c1)c1cccc(S(N)(=O)=O)c1` (stereo not drawn) [Compound 60], the results for the Dmax at NEK7 (read-out: NEK7 NanoBiT Dmax) and at NEK7 (setting [1]) were 96% and over 75%, respectively. Further, the DC50 at NEK7 (read-out: NEK7 NanoBiT DC50) was 2 nM; on NEK7 (setting [2]), at most 100 nM. The 50% effective concentration (EC50) is 60 nM on CRBN-DDB1 and at most 100 nM at CRBN-DDB1 (HTRF class, Cereblon binding).
As for `CC(C)(C(=O)NCc1ccc(C2CCC(=O)NC2=O)c(Cl)c1)c1ccccc1` (stereo not drawn) [Compound 103], the figures for the Dmax on NEK7 (read-out: NEK7 NanoBiT Dmax) and at NEK7 (setting [1]) were 89% and over 75%, respectively. Besides, the results for the DC50 at NEK7 (read-out: NEK7 NanoBiT DC50) and on NEK7 (setting [2]) were 20 nM and at most 100 nM, respectively. Also, the EC50 at CRBN-DDB1 was 180 nM; on CRBN-DDB1 (HTRF class, Cereblon binding) it was 100 to 1000 nM.
Turning to `CC(C)(C(=O)NCc1cc(Cl)c(C2CCC(=O)NC2=O)c(Cl)c1)c1ccc(OC(F)F)nn1` (stereo not drawn) [Compound 210], the values for the Dmax on NEK7 (read-out: NEK7 NanoBiT Dmax) and at NEK7 (setting [1]) were 96% and over 75%, respectively. In addition, the DC50 at NEK7 (read-out: NEK7 NanoBiT DC50) was 2 nM; on NEK7 (setting [2]), at most 100 nM. The EC50 at CRBN-DDB1 was 460 nM; on CRBN-DDB1 (HTRF class, Cereblon binding), 100 to 1000 nM.
Consider `CC(C)(C(=O)NCc1cc(Cl)c([C@@H]2CCC(=O)NC2=O)c(Cl)c1)c1ncc(C#N)cn1` (single isomer, unassigned) [Compound 152], for which the maximal degradation (Dmax) on NEK7 (read-out: NEK7 NanoBiT Dmax) is 95%; at NEK7 (setting [1]) it was over 75%. Further, the DC50 on NEK7 (read-out: NEK7 NanoBiT DC50) is 2 nM; on NEK7 (setting [2]), at most 100 nM. In addition, the EC50 on CRBN-DDB1 was 240 nM; on CRBN-DDB1 (HTRF class, Cereblon binding) it was 100 to 1000 nM.
Take `CC(C)(C(=O)NCc1cc(F)c(C2CCC(=O)NC2=O)c(Cl)c1)c1cc(F)ccn1` (stereo not drawn) [Compound 260, N-(3-chloro-4-(2,6-dioxopiperidin-3-yl)-5-fluorobenzyl)-2-(4-fluoropyridin-2-yl)-2-methylpropanamide]: the results for the Dmax on NEK7 (read-out: NEK7 NanoBiT Dmax) and on NEK7 (setting [1]) were 47% and at most 50%, respectively. The values for the DC50 at NEK7 (read-out: NEK7 NanoBiT DC50) and on NEK7 (setting [2]) were 480 nM and 100 to 1000 nM, respectively. Besides, the EC50 at CRBN-DDB1 is 110 nM; at CRBN-DDB1 (HTRF class, Cereblon binding), 100 to 1000 nM.
Turning to `Cn1c(=O)[nH]c2cc(C(C)(C)C(=O)NCc3cc(Cl)c(C4CCC(=O)NC4=O)c(Cl)c3)ccc21` (stereo not drawn) [Compound 72], the Dmax on NEK7 (read-out: NEK7 NanoBiT Dmax) is 90%; at NEK7 (setting [1]), over 75%. The DC50 is 11 nM on NEK7 (read-out: NEK7 NanoBiT DC50) and at most 100 nM at NEK7 (setting [2]). Further, the EC50 on CRBN-DDB1 is 470 nM; at CRBN-DDB1 (HTRF class, Cereblon binding) it was 100 to 1000 nM.
`CC(C)(C(=O)NCc1cc(Cl)c(C2CCC(=O)NC2=O)c(Cl)c1)c1ccnc(C#N)c1` (stereo not drawn) [Compound 92]: the values for the Dmax on NEK7 (read-out: NEK7 NanoBiT Dmax) and on NEK7 (setting [1]) were 71% and 50 to 75%, respectively. The DC50 on NEK7 (read-out: NEK7 NanoBiT DC50) is 65 nM; at NEK7 (setting [2]) it was at most 100 nM. The EC50 on CRBN-DDB1 was 180 nM; on CRBN-DDB1 (HTRF class, Cereblon binding), 100 to 1000 nM.
Consider `CCOc1ccc(C(C)(C)C(=O)NCc2cc(F)c(C3CCC(=O)NC3=O)c(Cl)c2)nn1` (stereo not drawn) [Compound 258], for which the Dmax was 91% on NEK7 (read-out: NEK7 NanoBiT Dmax) and over 75% at NEK7 (setting [1]). Further, the DC50 is 4 nM on NEK7 (read-out: NEK7 NanoBiT DC50) and at most 100 nM on NEK7 (setting [2]). In addition, the EC50 on CRBN-DDB1 was 70 nM; on CRBN-DDB1 (HTRF class, Cereblon binding), at most 100 nM.
With `Cc1cncc(C(C)(C)C(=O)NCc2cc(Cl)c(C3CCC(=O)NC3=O)c(Cl)c2)n1` (stereo not drawn) [Compound 176], the Dmax at NEK7 (read-out: NEK7 NanoBiT Dmax) was 60%; on NEK7 (setting [1]), 50 to 75%. Also, the DC50 on NEK7 (read-out: NEK7 NanoBiT DC50) is 116 nM; at NEK7 (setting [2]), 100 to 1000 nM. The EC50 on CRBN-DDB1 is 50 nM; at CRBN-DDB1 (HTRF class, Cereblon binding), at most 100 nM.
